Drawing on the NIST ThermoML archive (doi:10.1016/j.jct.2014.04.025), this text covers mass density for 8 molecules.

The conditions of this data set: 101.33 kPa, Liquid, Vibrating tube method.

Each structure is given as a SMILES string. ± gives the expanded uncertainty stated by the source.

Consider `c1ccc2sccc2c1` [benzo[b]thiophene], for which the mass density is, setting by setting: (308.15 K) 1150.81 ± 1 kg/m3; (318.15 K) 1141.83 ± 1 kg/m3; (328.15 K) 1132.85 ± 1 kg/m3.
On to `CCCC[N+]1(C)CCCC1.O=S(=O)([O-])C(F)(F)F` [1-butyl-1-methylpyrrolidinium trifluoromethanesulfonate], for which the mass density (298.15 K) is 1252.75 ± 1.1 kg/m3.
For the molecule `CCCCCCn1cc[n+](C)c1.N#C[B-](C#N)(C#N)C#N` [1-hexyl-3-methylimidazolium tetracyanoborate], the mass density (308.15 K) amounted to 983.03 ± 1 kg/m3.
Consider `CCCO` [propan-1-ol], for which the mass density (298.15 K) is 799.52 ± 1 kg/m3.
The same measure, in the same setting: the same measure for `CCCCCCC` [heptane]: 679.54 ± 1 kg/m3.
On the same count and under the same terms, under `CCCC[N+]1(C)CCCC1.N#CC(=C=[N-])C#N` [1-butyl-1-methylpyrrolidinium tricyanomethanide] stands 1006.91 ± 1.3 kg/m3.
Still for that read-out and setting: under `c1ccsc1` [thiophene] stands 1058.92 ± 1 kg/m3; under `CC(C)=O` [acetone], 785.32 ± 1 kg/m3.
